Measurements: EP4741386A1 (Jiangsu Yahong Meditech Co., Ltd., priority 2023, dated 2025)

Experiments:
[1] = target: T1, Recombinant human His6-USP1/His6-UAF1 complex protein (Homo sapiens, UniProt O94782); assay: In vitro inhibitory activity against USP1 (Ubiquitin Rhodamine 110 fluorescence detection, 384-well plate); assay type: biochemical; conditions: Ub-Rho substrate, 1 hour pre-incubation, read after 30 minutes
T1 construct: His6; purchased R&D E-568-050
How it was run: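 Fluorescence assay measuring inhibition of recombinant human His6-USP1/His6-UAF1 complex with Ubiquitin-Rhodamine 110 substrate. Compounds held as 50 mM stocks in 100% DMSO and dispensed by acoustic transfer into modified Tris assay buffer.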

MDA-MB-436 = assay: CTG experiment for cell viability (CellTiter-Glo, 96-well plate, 7 days); assay type: cell-based; conditions: Homo sapiens, MDA-MB-436, 168 h, MDA-MB-436 cells, 7 days culture with compound
How it was run: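 MDA-MB-436 cells in DMEM were plated in 96-well format, treated with compounds, and cultured 7 days at 37°C. After removing the medium, cells were given PBS plus CellTiter-Glo reagent, incubated 10 min at room temperature, and luminescence was read. Curves were fitted as for the enzyme assay.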

T1 sequence (O94782 whole entry): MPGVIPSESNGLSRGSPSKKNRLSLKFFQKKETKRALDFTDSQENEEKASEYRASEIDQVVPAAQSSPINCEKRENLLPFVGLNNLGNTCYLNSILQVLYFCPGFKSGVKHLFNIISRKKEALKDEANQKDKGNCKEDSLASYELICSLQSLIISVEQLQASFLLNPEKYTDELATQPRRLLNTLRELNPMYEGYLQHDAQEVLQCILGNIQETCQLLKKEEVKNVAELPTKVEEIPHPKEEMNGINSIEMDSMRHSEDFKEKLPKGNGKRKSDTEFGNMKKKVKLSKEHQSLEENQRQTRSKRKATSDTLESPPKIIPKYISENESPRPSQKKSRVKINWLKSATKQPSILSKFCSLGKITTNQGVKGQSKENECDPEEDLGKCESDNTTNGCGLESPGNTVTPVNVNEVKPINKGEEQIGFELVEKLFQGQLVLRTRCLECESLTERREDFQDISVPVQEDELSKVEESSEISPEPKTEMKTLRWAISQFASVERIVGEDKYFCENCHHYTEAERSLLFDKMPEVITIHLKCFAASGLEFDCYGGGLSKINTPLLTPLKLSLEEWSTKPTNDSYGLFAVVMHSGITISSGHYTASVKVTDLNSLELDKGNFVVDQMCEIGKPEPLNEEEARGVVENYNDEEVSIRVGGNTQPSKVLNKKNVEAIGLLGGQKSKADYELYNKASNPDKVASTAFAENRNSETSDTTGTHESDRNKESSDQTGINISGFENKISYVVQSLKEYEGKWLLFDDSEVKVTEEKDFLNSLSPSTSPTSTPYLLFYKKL
T1 sequence (Q8TAF3 whole entry partner): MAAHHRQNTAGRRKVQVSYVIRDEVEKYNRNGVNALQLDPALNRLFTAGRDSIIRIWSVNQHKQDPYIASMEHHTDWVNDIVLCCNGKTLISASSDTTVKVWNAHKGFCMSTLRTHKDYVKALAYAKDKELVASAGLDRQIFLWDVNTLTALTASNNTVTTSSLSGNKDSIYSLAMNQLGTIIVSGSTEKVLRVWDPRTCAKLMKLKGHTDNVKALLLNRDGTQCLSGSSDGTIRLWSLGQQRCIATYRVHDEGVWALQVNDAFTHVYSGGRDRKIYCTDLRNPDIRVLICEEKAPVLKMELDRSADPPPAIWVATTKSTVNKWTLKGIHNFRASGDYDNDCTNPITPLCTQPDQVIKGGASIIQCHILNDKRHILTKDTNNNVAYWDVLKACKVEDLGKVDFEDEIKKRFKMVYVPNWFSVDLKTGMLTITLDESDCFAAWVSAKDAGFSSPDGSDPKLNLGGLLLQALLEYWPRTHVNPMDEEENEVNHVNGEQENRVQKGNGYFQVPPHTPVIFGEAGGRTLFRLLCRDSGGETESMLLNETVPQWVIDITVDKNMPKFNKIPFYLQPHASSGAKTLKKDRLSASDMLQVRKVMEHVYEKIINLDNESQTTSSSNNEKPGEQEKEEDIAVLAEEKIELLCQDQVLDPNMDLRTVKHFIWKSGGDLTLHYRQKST

IC50 [1] [nM] | IC50 (MDA-MB-436) [nM] | SMILES
5.2 | 5 | C#CCN(Cc1ccc(-c2nc(C(F)(F)F)cn2C)cc1)c1nc(-c2c(OC)ncnc2C2CC2)ncc1OC [Example 139, 4'-Cyclopropyl-5,6'-dimethoxy-N-(4-(1-methyl-4-(trifluoromethyl)-1H-imidazol-2-yl)benzyl)-N-(prop-2-yn-1-yl)-[2,5'-bipyrimidin]-4-amine]
2.8 | 56.9 | CC(C)c1ccccc1-c1ncc(C#N)c(NCc2ccc(-c3nc(C(F)(F)F)cn3C)cc2)n1 [Example 39, 2-(2-Isopropylphenyl)-4-((4-(1-methyl-4-(trifluoromethyl)-1H-imidazol-2-yl)benzyl)amino)pyrimidine-5-carbonitrile]
2.2 | 8.7 | COc1cnc(-c2c(OC)ncnc2C2CC2)nc1NCC12C3C4C1C1C2C3C41c1nc(C(F)(F)F)cn1C (stereo not shown) [Example 215]
7.6 | 113 | COc1cnc(-c2ccccc2C(C)C)nc1NCC1CCN(c2ccccn2)CC1 [Example 5, 2-(2-Isopropylphenyl)-5-methoxy-N-((1-(pyridin-2-yl)piperidin-4-yl)methyl)pyrimidin-4-amine]
3.2 | 267 | CCOCCOc1ccc(CNc2nc(-c3ccccc3C(C)C)ncc2OC)cc1 [Example 68, N-(4-(2-Ethoxyethoxy)benzyl)-2-(2-isopropylphenyl)-5-methoxypyrimidin-4-amine]
72 | 58.4 | COc1cnc(-c2cccnc2C2CC2)nc1N(C)CC1CCN(c2ccccn2)CC1 [Example 151, 2-(2-Cyclopropylpyridin-3-yl)-5-methoxy-N-methyl-N-((1-(pyridin-2-yl)piperidin-4-yl)methyl)pyrimidin-4-amine]
3.6 | 112 | CC(C)Oc1cnc(-c2ccccc2C(C)C)nc1NCc1ccc(-c2nc(C(F)(F)F)cn2C)cc1 [Example 73, 5-Isopropoxy-2-(2-isopropylphenyl)-N-(4-(1-methyl-4-(trifluoromethyl)-1H-imidazol-2-yl)benzyl)pyrimidin-4-amine]
4.4 | 99.1 | COc1cc(-n2nc(C(F)(F)F)cc2C)ccc1CNc1nc(-c2ccccc2C(C)C)nc2ccoc12 [Example 83, 2-(2-Isopropylphenyl)-N-(2-methoxy-4-(5-methyl-3-(trifluoromethyl)-1H-pyrazol-1-yl)benzyl)furo[3,2-d]pyrimidin-4-amine]
33 | 33.1 | COc1cnc(-c2ccccc2C(C)C)nc1NCC12CCC(c3ccc(C(F)(F)F)cn3)(CC1)CC2 [Example 23, 2-(2-Isopropylphenyl)-5-methoxy-N-((4-(5-(trifluoromethyl)pyridin-2-yl)bicyclo[2.2.2]octan-1-yl)methyl)pyrimidin-4-amine]
2.3 | 84.7 | COc1cc(-c2nc(C(F)(F)F)cn2C)ccc1CNc1nc(-c2ccccc2C2CC2)ncc1OC [Example 171, 2-(2-Cyclopropylphenyl)-5-methoxy-N-(2-methoxy-4-(1-methyl-4-(trifluoromethyl)-1H-imidazol-2-yl)benzyl)pyrimidin-4-amine]
56 | 197 | COc1cnc(-c2c(OC)cnn2C(C)C)nc1NCC1CCN(c2nc(C(F)(F)F)cn2C)CC1 [Example 179, 2-(1-Isopropyl-4-methoxy-1H-pyrazol-5-yl)-5-methoxy-N-((1-(1-methyl-4-(trifluoromcthyl)-1H-imidazol-2-yl)piperidin-4-yl)methyl)pyrimidin-4-amine]
6.2 | 7.3 | COc1cnc(-c2cccnc2C2CC2)nc1NCc1ccc(-n2nc(C(F)(F)F)cc2C)cc1 [Example 154, 2-(2-Cyclopropylpyridin-3-yl)-5-methoxy-N-(4-(5-methyl-3-(trifluoromethyl)-1H-pyrazol-1-yl)benzyl)pyrimidin-4-amine]
144 | 694 | COc1cnc(-c2c(OC)ncnc2C2CC2)nc1NCc1ccc(OCc2ccccn2)cc1 [Example 98, 4'-Cyclopropyl-5,6'-dimethoxy-N-(4-(pyridin-2-ylmethoxy)benzyl)-[2,5'-bipyrimidin]-4-amine]
1.2 | 1.8 | CC(C)c1ccccc1-c1nc(NCc2ccc(-c3nc(C(F)(F)F)cn3C)cc2)c2occc2n1 [Example 33, 2-(2-Isopropylphenyl)-N-(4-(1-methyl-4-(trifluoromethyl)-1H-imidazol-2-yl)benzyl)furo[3,2-d]pyrimidin-4-amine]
19 | 731 | COc1cnc(-c2cccc3c2N(C)CC3)nc1NCc1ccc(-c2nc(C(F)(F)F)cn2C)cc1 [Example 145, 5-Methoxy-N-(4-(1-methyl-4-(trifluoromethyl)-1H-imidazol-2-yl)benzyl)-2-(1-methylindolin-7-yl)pyrimidin-4-amine]
4.8 | 12 | COc1cnc(-c2c(OC)ncnc2C2CC2)nc1NCc1ccc(-c2nc(C(F)(F)F)cn2C)cc1 [Example 96, 4'-Cyclopropyl-5,6'-dimethoxy-N-(4-(1-methyl-4-(trifluoromethyl)-1H-imidazol-2-yl)benzyl)-[2,5'-bipyrimidin]-4-amine]
2.8 | 2.8 | COc1cnc(-c2c(C)cnn2C(C)C)nc1N(C)Cc1ccc(-c2nc(C(F)(F)F)cn2C)cc1 [Example 200, 2-(1-Isopropyl-4-methyl-1H-pyrazol-5-yl)-5-methoxy-N-methyl-N-(4-(1-methyl-4-(trifluoromethyl)-1H-imidazol-2-yl)benzyl)pyrimidin-4-amine]
6.8 | 3.5 | COc1cnc(-c2c(OC)ncnc2C2CC2F)nc1N(C)C[C@H]1CC[C@H](c2nc(C(F)(F)F)cn2C)CC1 (stereo partly shown) [Example S35]
7.6 | 16.9 | COc1cc(-c2nc(C(F)(F)F)cn2C)ccc1CNc1nc(-c2c(OC)ncnc2C2CC2)nc2ccoc12 [Example 119, 2-(4-Cyclopropyl-6-methoxypyrimidin-5-yl)-N-(2-methoxy-4-(1-methyl-4-(trifluoromethyl)-1H-imidazol-2-yl)benzyl)furo[3,2-d]pyrimidin-4-amine]
15 | 135 | COc1ncnc(C2CC2)c1-c1ncc(OC(F)F)c(NCC2CCN(c3nc(C(F)(F)F)cn3C)CC2)n1 [Example 133, 4'-Cyclopropyl-5-(difluoromethoxy)-6'-methoxy-N-((1-(1-methyl-4-(trifluoromethyl)-1H-imidazol-2-yl)piperidin-4-yl)methyl)-[2,5'-bipyrimidin]-4-amine]
35 | 168 | COc1cnc(-c2c(Cl)cnn2C(C)C)nc1N(C)CC12CCC(c3nc(C(F)(F)F)cn3C3CCC3)(CC1)OC2 [Example S12, 2-(4-Chloro-1-isopropyl-1H-pyrazol-5-yl)-N-((1-(1-cyclobutyl-4-(trifluoromethyl)-1H-imidazol-2-yl)-2-oxabicyclo[2.2.2]oct-4-yl)methyl)-5-methoxy-N-methylpyrimidin-4-amine]
4 | 187 | COc1cc(CNc2nc(-c3ccccc3C3CC3)nc3ccoc23)ccc1-c1nc(C(F)(F)F)cn1C [Example 176, 2-(2-Cyclopropylphenyl)-N-(3-methoxy-4-(1-methyl-4-(trifluoromethyl)-1H-imidazol-2-yl)benzyl)furo[3,2-d]pyrimidin-4-amine]
2.1 | 2.2 | COc1cnc(-c2ccccc2C(C)C)nc1N(C)CC1CCN(c2nc(C(F)(F)F)cn2C)CC1 [Example 62, 2-(2-Isopropylphenyl)-5-methoxy-N-methyl-N-((1-(1-methyl-4-(trifluoromethyl)-1H-imidazol-2-yl)piperidin-4-yl)methyl)pyrimidin-4-amine]
6.9 | 12.1 | COc1cnc(-c2c(OC)ncnc2C2CC2)nc1N(C#N)CC12CCC(c3nc(C(F)(F)F)cn3C)(CC1)CC2 [Example S43]
19 | 45.6 | [2H]C([2H])([2H])N(Cc1ccc(-c2nc(C(F)(F)F)cn2CF)cc1)c1nc(-c2c(OC)ncnc2C2CC2)ncc1F [Example 130, 4'-Cyclopropyl-5-fluoro-N-(4-(1-(fluoromethyl)-4-(trifluoromethyl)-1H-imidazol-2-yl)benzyl)-6'-methoxy-N-(methyl-d3)-[2,5'-bipyrimidin]-4-amine]
6 | 8.8 | C#Cc1cnc(-c2c(OC)ncnc2C2CC2)nc1NCc1ccc(-c2nc(C(F)(F)F)cn2C)cc1 [Example 132, 4'-Cyclopropyl-5-ethynyl-6'-methoxy-N-(4-(1-methyl-4-(trifluoromethyl)-1H-imidazol-2-yl)benzyl)-[2,5'-bipyrimidin]-4-amine]
2.8 | 336 | CC(C)c1ccccc1-c1nc(NCc2ccc(-c3ccccn3)cc2)c2occc2n1 [Example 32, 2-(2-isopropylphenyl)-N-(4-(pyridin-2-yl)benzyl)furo [3,2-d] pyrimidin-4-amine]
4.6 | 4.5 | [2H]C([2H])([2H])N(C[C@H]1CC[C@H](c2nc(C(F)(F)F)cn2C)CC1)c1nc(-c2c(OC)ncnc2C2CC2)ncc1OC [Example S22, 4'-Cyclopropyl-5,6'-dimethoxy-N-(methyl-d3)-N-(((1r,4r)-4-(1-methyl-4-(trifluoromethyl)-1H-imidazol-2-yl)cyclohexyl)methyl)-[2,5'-bipyrimidin]-4-amine]
1.5 | 3.5 | COc1cnc(-c2c(OC)ncnc2C2CC2)nc1N(C)Cc1ccc(-c2nc(C(F)(F)F)cn2C(C)C)cc1 [Example 93, 4'-Cyclopropyl-N-(4-(1-isopropyl-4-(trifluoromethyl)-1H-imidazol-2-yl)benzyl)-5,6'-dimethoxy-N-methyl-[2,5'-bipyrimidin]-4-amine]
